Here are results for three compounds from patent publication US20120315256A1, “USE OF TRANSFORMING GROWTH FACTOR - BETA 1 (TGF-B1) INHIBITOR PEPTIDES FOR THE TREATMENT OF CORNEAL FIBROSIS AND/OR HAZE” (DIGNA BIOTECH, S.I., priority 2010, published 2012).

In one test the test system is Long-Evans rats. The test can be described thus: Corneal damage with 1 N NaOH in rats: weekly follow-up of corneal haze and epithelial closure (photographs, ImageJ). It is filed as in vivo, rat. The conditions noted are these: for chemical lesions induced after corneal damage with 1N NaOH: after treatment, different experimentation groups; for corneal haze, significance treated at the fifth week vs. treated at day 0 / epithelial closure, significance treated at the fifth week vs. treated at day 0: fifth week vs day 0; for corneal haze, significance control vs. peptide / epithelial closure, significance control vs. peptide: Student's t-test; for corneal haze / epithelial closure: treated eye vs control eye, topical eye drops, fifth formulation, 1 N NaOH damage; for epithelial closure: fluorescein. The text has this: In this study, domestic hens (Gallus gallus domesticus) aged between 12 and 16 months were initially used as experimental animals but due to the difficulty of the model, especially in relation to obtaining and handling the animals, it was decided to use Long-Evans rats. Furthermore, it was bibliographically verified that these animals are used for in vivo models for studying corneal fibrosis because they allow to follow the evolution of the damage with more precision since they are pigmented rats and, like humans, have a Bowman's membrane.
Male Long-Evans rats aged 10 weeks were used, divided into 5 groups: • Group 1: 12 rats, 6 treated with dexamethasone and 6 treated with mitomycin C. • Group 2: 12 rats, 6 treated with p17 of the first formulation (see section 1.1.2.b) and 6 treated with p144 of the first formulation (see section 1.1.2.b). • Group 3: 12 rats, 6 treated with p17 of the second formulation (see section 1.1.2.b) and 6 treated with p144 of the second formulation (see section 1.1.2.b). • Group 4: 12 rats, 6 treated with p17 of the third formulation (see section 1.1.2.b) and 6 treated with p144 of the third formulation (see section 1.1.2.b). • Group 5: 12 rats, 6 treated with p17 of the fourth formulation (see section 1.1.2.b) and 6 treated with p144 of the fourth formulation (see section 1.1.2.b). • Group 6: 12 rats, 6 treated with p17 of the fifth formulation (see section 1.1.2.b) and 6 treated with p144 of the fifth formulation (see section 1.1.2.b).
To perform the damage in the cornea, the animals were anesthetized with isoflurane and a 5 mm Whatman paper disc impregnated in 1 N NaOH for 30 seconds was applied to them in the central part of the eye. After the damage, they were washed with abundant physiological saline serum and an antibiotic ointment was applied to them to prevent possible infections in the affected area.
After conducting several in vivo studies with the previously described groups of animals, it could be concluded that the chemical damage occurring after the application of NaOH for 30 seconds caused an excessive lesion for the study which was to be conducted, therefore, it was decided to conduct new experiments reducing the time to 15 seconds.
It was randomly established that the left eye of each animal would act as a control and that the right eye would be the treated eye, such that the same animals acts as a control in addition to being treated. It must be pointed out that all the animals received antibiotic treatment in both eyes daily only during the first week of the study for the purposes of avoiding microbial keratitis.
Starting from 0.15% sodium hyaluronate (Hyabak 10 mL, Thea) without preservatives: • p144: 20 mg were dissolved in 5 ml of eye drops, […] of saturated concentrated NaOH were incorporated, stirring and adding in portions of 5 μl. It was sonicated until solubilization. To adjust the pH, 500 μl of 1M HEPES (4-(2-hydroxyethyl)-1-piperazineethanesulfonic acid) were added, such that the pH changed from 10.5 to 7 • p144 control: 40 μl of saturated NaOH and 500 μl of 1 M HEPES (final concentration of HEPES 50 mM) • p17: 20 mg were dissolved in 5 ml of the eye drops, it was sonicated until complete solubilization and it was incorporated to the vial with a 10 ml syringe and a blue needle to perforate the filter of the contained (final concentration 2 mg/ml) • p17 control: non-manipulated eye drops • Note: The formulations were maintained at 4° C. throughout the study.
Therefore, all the results shown in relation to in vivo will refer to this type of treatment.
The administration of the treatment was initiated twenty-four hours after the damage. After that time a follow-up of the damage was performed, which consisted of taking photographs at days 0, 7, 14, 21, 28 and 35. To take the photographs the animals were anesthetized with isoflurane. Photographs were taken of both the control eye (left) and of the treated eye (right) with and without fluorescein. […]

Test [1] deals with p-Smad2. The test can be described thus: Western Blot against p-Smad2 in TGF-β1-treated primary culture of rabbit corneal fibroblasts. It is filed as cell-based. The conditions noted are these: for inhibition of the expression of p-Smad2: TGF-β1 treated. How it is done:
(§1) Therefore, Western Blot and immunofluorescence studies were conducted to determine, from cells extracted from the in vivo studies, the signaling pathway used by the peptides administered topically. It should be emphasized that said studies were conducted on fibroblasts from rabbit cornea and not from rat cornea. This decision was made due to the difficulty entailed in isolating fibroblasts from rodent eyes.
(§2) Since the scientific literature repeatedly describes the TGF-β1 signaling pathways, the decision was made to go into depth in such pathways by means of the techniques described in the methodology section. Said pathways involve the study of the Smad protein family, specifically the study of the isoforms Smad2, 2/3 and 7.
(§3) To that end, protein extracts obtained from the primary culture of rabbit fibroblasts were treated with TGF-β1 at concentrations of 0, 3 and 5 ng/ml and, 50 and 200 μg/ml of peptide p17 and p144.
(In western blotting, separated proteins are transferred to a membrane and probed.)

The next test deals with Smad 2/3. The test can be described thus: Western Blot against Smad2/3 in rabbit corneal fibroblasts. The following applies: primary culture; peptide 50 and 200 μg/ml. The test is classed as cell-based. On the procedure:
as §1, §2, §3

Another test relates to Smad 7. The test can be described thus: Western Blot against Smad7 in rabbit corneal fibroblasts treated with TGF-β. The test is classed as cell-based. The following applies: primary culture; peptide 50 and 200 μg/ml. How it is done: as §1, §2, §3
Test [2] concerns p-Smad2. The test can be described thus: Immunofluorescence for p-Smad2 on rabbit corneal fibroblasts. The test is classed as cell-based. The conditions noted are these: TGF-β1 treated fibroblasts. On the procedure:
as §1

“Also recorded” adds a separate entry of the source.

With “KRIWFIPRSSWYERA (TGF-beta 1 inhibitor peptide) [p17]”, in the test with Long-Evans rats, the “chemical lesions induced after corneal damage with 1N NaOH” value is listed as “decreases significantly”; the “corneal haze, significance treated at the fifth week vs. treated at day 0” value is given as “highly significant”; the “epithelial closure, significance treated at the fifth week vs. treated at day 0” value is recorded as “highly significant”; the corneal haze entry is “clear decrease; also recorded: significantly reversed”. Besides, in the test with Long-Evans rats, the epithelial closure entry was “clear decrease; also recorded: significantly reversed”. Also, in the test with Long-Evans rats (fifth week), the “corneal haze, significance control vs. peptide” value is “highly significant” and the “epithelial closure, significance control vs. peptide” value was “very significant”. Also, the “effect on the signaling cascade of TGF-β1” value in the test on p-Smad2 [1] (primary culture of rabbit corneal fibroblasts, Smad2, Smad2/3, Smad7) is reported as “does not have any effect”. Moreover, the “expression of Smad 2/3” value in the test on Smad 2/3 is on record as “not affected; also recorded: not modified”. The “expression of Smad 7” value in the test with Smad 7 is “not modified”. In addition, in the test on p-Smad2 [2], the “translocation of p-Smad2 to the nucleus” value is “did not inhibit”.
As to `CO[C@@]12[C@H](COC(N)=O)C3=C(C(=O)C(C)=C(N)C3=O)N1C[C@@H]1N[C@@H]12` [mitomycin C, reference compound], in the test with Long-Evans rats (first experiment, Group 1), the “clinical efficacy of drugs usually used in the treatment of corneal fibrosis” value is recorded as “correspond to those described in the scientific literature”.
Take “TSLDASIIWAMMQN (TGF-beta 1 inhibitor peptide) [p144]”: in the test with Long-Evans rats, the “chemical lesions induced after corneal damage with 1N NaOH” value was “decreases significantly”; the “corneal haze, significance treated at the fifth week vs. treated at day 0” value is “highly significant”; the “epithelial closure, significance treated at the fifth week vs. treated at day 0” value is “highly significant”; the corneal haze result is “clear decrease; also recorded: significantly reversed”. The epithelial closure entry in the test with Long-Evans rats was “clear decrease; also recorded: significantly reversed”. In the test with Long-Evans rats (fifth week), the “corneal haze, significance control vs. peptide” value is recorded as “highly significant” and the “epithelial closure, significance control vs. peptide” value is listed as “highly significant”. Besides, in the test on Long-Evans rats (fourth week), the “epithelial closure, significance control vs. peptide” value is on record as “significant”. Besides, the “corneal haze, significance control vs. peptide” value with Long-Evans rats (second and fourth week) was “significant”. Moreover, the “inhibition of the expression of p-Smad2” value in the test with p-Smad2 [1] (peptide 50 μg/ml) was “slight inhibition; also recorded: inhibiting the phosphorylation of Smad2”. Further, in the test on p-Smad2 [1] (peptide 200 μg/ml), the “inhibition of the expression of p-Smad2” value was “reaching the values of the controls; also recorded: inhibiting the phosphorylation of Smad2”. The “expression of Smad 2/3” value with Smad 2/3 was “not affected; also recorded: not modified”. Further, the “expression of Smad 7” value in the test with Smad 7 is “not modified”. Further, the “translocation of p-Smad2 to the nucleus” value with p-Smad2 [2] is reported as “inhibited”.
